Data from patent US20260007651A1, “Effect of YEL002 on Conditions and Diseases” (RadMit, Inc., priority 2022, published 2026).

Test system: lymphoma
Assay: Lymphoma incidence in mice (National Institute of Health experiment)
Format: in vivo
Settings: reduced from 10-20%
Procedure: This was observed after treating mice right after birth, if humans are treated later in life it is possible that only 10 or 5 years are added and probably more for DNA repair deficient diseases like ataxia telangiectasia (ATM) which is still very substantial.

## COc1ccc2cc(-c3nc4ccc(C)cn4c3NCc3ccco3)c(=O)[nH]c2c1 [YEL002]
  spontaneous frequency of lymphoma: 0%
